US6214821A, “Methods and composition for the inhibition of cancer cells” (Washington State University Research Foundation, priority 1999, dated 2001)
Read-outs that look alike come from different tables or passages of the source.

Experiments:
[1] = Tissue distribution of UCN-01 in rats, effect of human AGP; format: in vivo, male Wistar rats; settings: rat, iv, 10 mg/kg
Description: The role of human AGP binding on the tissue distribution of UCN-01. In this study, two groups of rats (n=3) were infused with bolus injection of either UCN-01 (10 mg/kg) or UCN-01+ human AGP (10 mg/kg +10 mg). On hour following drug administration, plasma samples as well as organ tissues (brain, muscle, kidneys, lungs, liver, heart and spleen) were collected. Tissues were digested and homogenized, protein was precipitated with cold ethanol/1% ascorbic acid, and the supernatant was extracted with chloroform. The organic phase was then dried under nitrogen, reconstituted in acetonitrile and analyzed by HPLC as mentioned above.

[2] = tested on: normal bovine venular endothelial cells (BVEC)
Description: Cell lines and Culture. […] Normal bovine venular endothelial cells (BVEC) were maintained in DMEM media (Gibco) supplemented with 1 mM sodium pyrovate (Gibco), and 20% bovine calf serum (Hyclone). Cell viability was determined using the trypan blue exclusion test. To ensure an exponential growth, cells were plated in fresh medium 24 h before each treatment.
Drug Treatment and Survival Curves. Cytotoxicity studies were initiated by plating 2×10^4 cells obtained from exponentially growing cultures in 24-well tissue culture plates (Coming-Costar, Cambridge Mass.) in the appropriate medium. Following 24 h incubation at 37° C., drugs were added to quadruplicate wells and incubated for 24 h, the wells were washed twice with prewarmed phosphate-buffered saline (PBS) and then incubated with drug-free medium for 2-3 doubling times.

MDA-231 (mutant p53) = test: Crystal violet staining growth inhibition assay, median effect analysis; settings: Homo sapiens, MDA-MB-231, 24 h, read-out: IC50 MDA-231 (p53-)
[3] = UCN-01 pharmacokinetics in rats, effect of human AGP; format: in vivo, male Wistar rats; settings: for half-life / clearance / Vd: 10 mg/kg; for half-life: range over the two groups (without and with 10 mg human AGP); for clearance: read-out: total body clearance (converted); for Vd: read-out: volume of distribution during the elimination phase
Source text: Many basic drugs tend to bind in variable degrees to AGP (Knowlton, K. et al., "Bcl-2 slows in vitro breast cancer growth despite its antiapoptotic effect," J. Surg. Res. 76:22-26 (1998)). […] Thus monitoring changes in the pharmacokinetic drug concentrations in these pathological conditions is extremely important, since dosage adjustment would be considered. For our drug combination, this binding is of a crucial consequence since the attainable plasma and tumor concentrations may be questionable and plasma protein displacement interaction may occur and can lead to undesirable side effects. Thus the role of human α1 -acid glycoprotein (AGP) binding on UCN-01 disposition was determined. In this example, two groups of rats were prepared by cannulating the femoral vein and artery. The first group (n=6) received UCN-01 (10 mg/kg i.v.) by slow infusion over 1 min., while the second group (n=5) received UCN-01+10 mg human α1 -acid glycoprotein. Plasma samples were obtained over time (0-700 min), and were analyzed for UCN-01 by HPLC system (Shimazdu LC), detecting peaks using fluorescence detector (excitation=310 nm, emission=410).

[4] = 72- or 3-h infusion, NCI Phase I; cited from earlier work
GI 101A cells = test: cells; format: cell-based, human
Source text: (§1) . Cell lines and Culture.
(§2) Drugs and Chemical Reagents. […] . […] All other chemicals were reagent grade.
(§3) Drug Treatment and Survival Curves.
(§4) Pharmacol. 28:370-376 (1991). […] .
(§5) Drug Combinations and Data Analysis. […] . Pharmacol. (in press, 1997). […] Enzyme Regul. […] Enzyme Regul. 22:27-55 (1984).
(§6) . […] Enzyme Regul. 22:27-55 (1984).

MDA-231 cells = test: cells; format: cell-based, human
Source text: as §1, §2, §3, §4, §5, §6

HMEC/E6 (p53-) = test: Crystal violet staining growth inhibition assay, median effect analysis; format: cell-based; settings: Homo sapiens, 24 hr treatment
Source text: Cytotoxicity and Bromodeoxyuridine incorporation assays. […] Enzyme Regul.

[5] = Death of animals injected with UCN-01; settings: i.m., doses higher than 5 mg/kg
HMEC (p53+) = test: Crystal violet staining growth inhibition assay, median effect analysis; settings: Homo sapiens, 24 h, read-out: IC50 HMEC (p53+)
[6] = tested on: α1 -acid glycoprotein (AGP); settings: cited from earlier work
[7] = rat, plasma, iv, UCN-01 10 mg/kg i.v. + 10 mg human AGP
[8] = rat, plasma, iv, UCN-01 10 mg/kg i.v. alone

For CN[C@@H]1C[C@H]2O[C@@](C)([C@@H]1OC)n1c3ccccc3c3c4c(c5c6ccccc6n2c5c31)C(=O)N[C@@H]4O [UCN-01, 7-hydroxystaurosporine], the Kp at 1 h ([1]; all tissues, UCN-01, 1 h, read-out: tissue:plasma ratios, all tissues) was 10 to 1190, the concentration at 1 h ([1]; brain, brain, UCN-01 10 mg/kg alone, 1 h, read-out: tissue concentration) was 2450 ± 495 ng/g and the Kp at 1 h ([1]; brain, brain, UCN-01 + human AGP, 1 h, read-out: Tissue/Plasma ratio) was 0.6 ± 0.33. It also gave a concentration at 1 h ([1]; brain, brain, UCN-01 + human AGP, 1 h, read-out: tissue concentration) of 1720 ± 78.4 ng/g, a Kp at 1 h ([1]; brain, brain, UCN-01 alone, 1 h, read-out: Tissue/Plasma ratio) of 10.5 ± 1.9 and a concentration at 1 h ([1]; heart, heart, UCN-01 10 mg/kg alone, 1 h, read-out: tissue concentration) of 19900 ± 9940 ng/g. For the same molecule, the Kp at 1 h ([1]; heart, heart, UCN-01 + human AGP, 1 h, read-out: Tissue/Plasma ratio) was 3.5 ± 1.7, the concentration at 1 h ([1]; heart, heart, UCN-01 + human AGP, 1 h, read-out: tissue concentration) was 10100 ± 4900 ng/g and the Kp at 1 h ([1]; heart, heart, UCN-01 alone, 1 h, read-out: Tissue/Plasma ratio) was 86.8 ± 41.7. The concentration at 1 h ([1]; kidney, kidney, UCN-01 10 mg/kg alone, 1 h, read-out: tissue concentration) was 73200 ± 3050 ng/g, the Kp at 1 h ([1]; kidney, kidney, UCN-01 + human AGP, 1 h, read-out: Tissue/Plasma ratio) was 14 ± 5.6 and the concentration at 1 h ([1]; kidney, kidney, UCN-01 + human AGP, 1 h, read-out: tissue concentration) was 39400 ± 8510 ng/g. It also gave a Kp at 1 h ([1]; kidney, kidney, UCN-01 alone, 1 h, read-out: Tissue/Plasma ratio) of 298 ± 40, a concentration at 1 h ([1]; liver, liver, UCN-01 10 mg/kg alone, 1 h, read-out: tissue concentration) of 42900 ± 3210 ng/g and a Kp at 1 h ([1]; liver, liver, UCN-01 + human AGP, 1 h, read-out: Tissue/Plasma ratio) of 11.3 ± 1.34. The concentration at 1 h ([1]; liver, liver, UCN-01 + human AGP, 1 h, read-out: tissue concentration) was 30100 ± 2530 ng/g, the Kp at 1 h ([1]; liver, liver, UCN-01 alone, 1 h, read-out: Tissue/Plasma ratio) was 189 ± 131 and the concentration at 1 h ([1]; lung, lung, UCN-01 10 mg/kg alone, 1 h, read-out: tissue concentration) was 279000 ± 19600 ng/g. It also gave a Kp at 1 h ([1]; lung, lung, UCN-01 + human AGP, 1 h, read-out: Tissue/Plasma ratio) of 53.6, a concentration at 1 h ([1]; lung, lung, UCN-01 + human AGP, 1 h, read-out: tissue concentration) of 141000 ± 12000 ng/g and a Kp at 1 h ([1]; lung, lung, UCN-01 alone, 1 h, read-out: Tissue/Plasma ratio) of 1190 ± 775. It also gave a concentration at 1 h ([1]; muscle, muscle, UCN-01 10 mg/kg alone, 1 h, read-out: tissue concentration) of 11900 ± 783 ng/g, a Kp at 1 h ([1]; muscle, muscle, UCN-01 + human AGP, 1 h, read-out: Tissue/Plasma ratio) of 2.27 ± 1.11 and a concentration at 1 h ([1]; muscle, muscle, UCN-01 + human AGP, 1 h, read-out: tissue concentration) of 6590 ± 3060 ng/g. For the same molecule, the Kp at 1 h ([1]; muscle, muscle, UCN-01 alone, 1 h, read-out: Tissue/Plasma ratio) was 60 ± 5.48, the concentration at 1 h ([1]; plasma, plasma, UCN-01 10 mg/kg + human AGP 10 mg, 1 h, mean ± SD, n=3, read-out: plasma concentration) was 2960 ± 250 ng/mL and the concentration at 1 h ([1]; plasma, plasma, UCN-01 10 mg/kg alone, 1 h, mean ± SD, n=3, read-out: plasma concentration) was 240 ± 35 ng/mL. The concentration at 1 h ([1]; spleen, spleen, UCN-01 10 mg/kg alone, 1 h, read-out: tissue concentration) was 74900 ± 5170 ng/g, the Kp at 1 h ([1]; spleen, spleen, UCN-01 + human AGP, 1 h, read-out: Tissue/Plasma ratio) was 19.6 ± 14.7 and the concentration at 1 h ([1]; spleen, spleen, UCN-01 + human AGP, 1 h, read-out: tissue concentration) was 53300 ± 3120 ng/g. For the same molecule, the Kp at 1 h ([1]; spleen, spleen, UCN-01 alone, 1 h, read-out: Tissue/Plasma ratio) was 326 ± 208, the “enhancement of CPT-induced cytotoxicity” value [2] was “no enhancement of CPT-induced cytotoxicity” and the IC50 (MDA-231 (mutant p53)) was 49.6 nM. The “duration of peak plasma concentration >100 nM” value ([3]; 10 mg/kg i.v., presence of human AGP) was “up to 300 min”, the half-life ([3]; rat, plasma, iv, 10 mg/kg i.v., read-out: t1/2α) was 0.183 to 0.85 h and the half-life ([3]; rat, plasma, iv, 10 mg/kg i.v., read-out: t1/2β) was 6.65 to 6.95 h. For the same molecule, the clearance [3, 7] was 1.5 mL/min, the Vd [3, 7] was 1.7 L/kg and the clearance [3, 8] was 4.33 mL/min. The Vd [3, 8] was 6.8 L/kg, the Cmax ([3]; rat, plasma, iv, 10 mg/kg i.v., presence of human AGP, read-out: peak plasma concentration) was over 100 nM and the distribution volume [4] was “small distribution volume”. The half-life [4] was “long half-life”, the plasma concentrations [4] was “high plasma concentrations” and the systemic clearance [4] was “Extremely low systemic clearance”. For the same molecule, the “enhancement of CPT cytotoxicity” value (GI 101A cells) was “about 30 fold”, the “enhancement of CPT cytotoxicity” value (MDA-231 cells) was about 40 fold and the IC50 (HMEC/E6 (p53-)) was 1.4 nM. For the same molecule, the death of animals [5] was “Death of animals injected with doses higher than 5 mg/kg was observed”, the IC50 (HMEC (p53+)) was 0.07 nM and the “binding to α1-acid glycoprotein” value [6] was “high affinity binding”.
